Results as given in ChEMBL document CHEMBL1201862, “PubChem BioAssay data set” (2004).
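48-hour exposure; five concentrations; linearly interpolated endpoints. GI50 marks 50% less growth.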 The source made the active and inactive calls. Cut-off read from the data, not from the text of the source: active = GI50 up to about 1.1 µM and inactive = higher.

Legend:
Experiment in all cases: DTP human tumour cell line panel, 48 h
K562 = system: K562
UACC-257 = system: UACC-257
A498 = system: A498
SNB-19 = system: SNB-19
HCT-15 = system: HCT-15
Hs-578T = system: Hs-578T
EKVX = system: EKVX
DU-145 = system: DU-145
ACHN = system: ACHN
SF-539 = system: SF-539
MDA-N = system: MDA-N
SK-MEL-28 = system: SK-MEL-28
786-0 = system: 786-0
OVCAR-4 = system: OVCAR-4
MOLT-4 = system: MOLT-4
PC-3 = system: PC-3
U-251 = system: U-251
SF-268 = system: SF-268
NCI-H226 = system: NCI-H226
Malme-3M = system: Malme-3M
MDA-MB-231 = system: MDA-MB-231
SW-620 = system: SW-620
TK-10 = system: TK-10
HOP-62 = system: HOP-62
MDA-MB-435 = system: MDA-MB-435
IGROV-1 = system: IGROV-1
HL-60 = system: HL-60
HCT-116 = system: HCT-116
LOX IMVI = system: LOX IMVI
NCI-H522 = system: NCI-H522
SN12C = system: SN12C
SK-OV-3 = system: SK-OV-3
MCF7 = system: MCF7
NCI-H460 = system: NCI-H460
A549 = system: A549
UACC-62 = system: UACC-62
OVCAR-8 = system: OVCAR-8
SK-MEL-2 = system: SK-MEL-2
KM12 = system: KM12
OVCAR-5 = system: OVCAR-5
RPMI-8226 = system: RPMI-8226
OVCAR-3 = system: OVCAR-3
SF-295 = system: SF-295
BT-549 = system: BT-549
HT-29 = system: HT-29
UO-31 = system: UO-31
SR = system: SR
M14 = system: M14
HOP-92 = system: HOP-92
NCI/ADR-RES = system: NCI/ADR-RES
CAKI-1 = system: CAKI-1
HCC 2998 = system: HCC 2998
CCRF-CEM = system: CCRF-CEM
RXF 393 = system: RXF 393
COLO 205 = system: COLO 205
SK-MEL-5 = system: SK-MEL-5
SNB-75 = system: SNB-75
T47D = system: T47D

Question: `Cc1nnc(N/N=C2/C(=O)Nc3ccccc32)nc1O` was tested. Which GI50 (K562) did it give?
Answer: > 100 µM (inactive)

Question: And the GI50 (UACC-257)?
Answer: > 100 µM (inactive)

Question: And the GI50 (A498)?
Answer: > 100 µM (inactive)

Question: What about the GI50 (SNB-19) of the same molecule?
Answer: > 100 µM (inactive)

Question: What about the GI50 (HCT-15) of the same molecule?
Answer: > 100 µM

Question: What about the GI50 (Hs-578T) of the same molecule?
Answer: > 100 µM (inactive)

Question: What about the GI50 (EKVX) of the same molecule?
Answer: > 100 µM (inactive)

Question: And the GI50 (DU-145)?
Answer: > 100 µM (inactive)

Question: And the GI50 (ACHN)?
Answer: > 100 µM (inactive)

Question: And the GI50 (SF-539)?
Answer: > 100 µM (inactive)

Question: And the GI50 (MDA-N)?
Answer: > 100 µM (inactive)

Question: What about the GI50 (SK-MEL-28) of the same molecule?
Answer: > 100 µM (inactive)

Question: What about the GI50 (786-0) of the same molecule?
Answer: > 100 µM (inactive)

Question: And the GI50 (OVCAR-4)?
Answer: > 100 µM (inactive)

Question: What about the GI50 (MOLT-4) of the same molecule?
Answer: > 100 µM (inactive)

Question: And the GI50 (PC-3)?
Answer: > 100 µM (inactive)

Question: And the GI50 (U-251)?
Answer: > 100 µM (inactive)

Question: And the GI50 (SF-268)?
Answer: > 100 µM (inactive)

Question: And the GI50 (NCI-H226)?
Answer: > 100 µM (inactive)

Question: What about the GI50 (Malme-3M) of the same molecule?
Answer: 72.8 µM (inactive)

Question: And the GI50 (MDA-MB-231)?
Answer: > 100 µM (inactive)

Question: And the GI50 (SW-620)?
Answer: > 100 µM (inactive)

Question: What about the GI50 (TK-10) of the same molecule?
Answer: > 100 µM (inactive)

Question: What about the GI50 (HOP-62) of the same molecule?
Answer: > 100 µM (inactive)

Question: And the GI50 (MDA-MB-435)?
Answer: > 100 µM (inactive)

Question: What about the GI50 (IGROV-1) of the same molecule?
Answer: > 100 µM (inactive)

Question: And the GI50 (HL-60)?
Answer: > 100 µM (inactive)

Question: What about the GI50 (HCT-116) of the same molecule?
Answer: > 100 µM (inactive)

Question: What about the GI50 (LOX IMVI) of the same molecule?
Answer: > 100 µM (inactive)

Question: And the GI50 (NCI-H522)?
Answer: > 100 µM (inactive)

Question: What about the GI50 (SN12C) of the same molecule?
Answer: > 100 µM (inactive)

Question: And the GI50 (SK-OV-3)?
Answer: > 100 µM (inactive)

Question: What about the GI50 (MCF7) of the same molecule?
Answer: > 100 µM (inactive)

Question: What about the GI50 (NCI-H460) of the same molecule?
Answer: > 100 µM (inactive)

Question: And the GI50 (A549)?
Answer: > 100 µM (inactive)

Question: What about the GI50 (UACC-62) of the same molecule?
Answer: > 100 µM (inactive)

Question: What about the GI50 (OVCAR-8) of the same molecule?
Answer: > 100 µM (inactive)

Question: What about the GI50 (SK-MEL-2) of the same molecule?
Answer: > 100 µM (inactive)

Question: And the GI50 (KM12)?
Answer: > 100 µM (inactive)

Question: And the GI50 (OVCAR-5)?
Answer: > 100 µM (inactive)

Question: What about the GI50 (RPMI-8226) of the same molecule?
Answer: > 100 µM (inactive)

Question: And the GI50 (OVCAR-3)?
Answer: > 100 µM (inactive)

Question: And the GI50 (SF-295)?
Answer: > 100 µM (inactive)

Question: What about the GI50 (BT-549) of the same molecule?
Answer: > 100 µM (inactive)

Question: What about the GI50 (HT-29) of the same molecule?
Answer: > 100 µM (inactive)

Question: What about the GI50 (UO-31) of the same molecule?
Answer: > 100 µM (inactive)

Question: And the GI50 (SR)?
Answer: > 100 µM (inactive)

Question: What about the GI50 (M14) of the same molecule?
Answer: > 100 µM (inactive)

Question: What about the GI50 (HOP-92) of the same molecule?
Answer: > 100 µM (inactive)

Question: And the GI50 (NCI/ADR-RES)?
Answer: > 100 µM (inactive)

Question: Which GI50 (K562) does the source give for `O=C1CCCCC/C1=C\c1ccc([N+](=O)[O-])cc1` here?
Answer: 50 µM (inactive)

Question: What about the GI50 (UACC-257) of the same molecule?
Answer: 20.9 µM (inactive)

Question: What about the GI50 (A498) of the same molecule?
Answer: 35.2 µM (inactive)

Question: And the GI50 (SNB-19)?
Answer: 29.4 µM (inactive)

Question: What about the GI50 (CAKI-1) of the same molecule?
Answer: 22.7 µM (inactive)

Question: And the GI50 (HCC 2998)?
Answer: 17.1 µM (inactive)

Question: And the GI50 (EKVX)?
Answer: 35.3 µM (inactive)

Question: What about the GI50 (DU-145) of the same molecule?
Answer: 41.4 µM (inactive)

Question: And the GI50 (ACHN)?
Answer: 21.5 µM (inactive)

Question: And the GI50 (SF-539)?
Answer: 26.5 µM (inactive)

Question: What about the GI50 (MDA-N) of the same molecule?
Answer: 42.4 µM (inactive)

Question: What about the GI50 (SK-MEL-28) of the same molecule?
Answer: 65 µM (inactive)

Question: What about the GI50 (786-0) of the same molecule?
Answer: 19.7 µM (inactive)

Question: What about the GI50 (MOLT-4) of the same molecule?
Answer: 41.7 µM (inactive)

Question: And the GI50 (PC-3)?
Answer: 38.6 µM (inactive)

Question: What about the GI50 (U-251) of the same molecule?
Answer: 31.3 µM (inactive)

Question: What about the GI50 (CCRF-CEM) of the same molecule?
Answer: 26.7 µM (inactive)

Question: And the GI50 (SF-268)?
Answer: 30.5 µM (inactive)

Question: And the GI50 (Malme-3M)?
Answer: 43.7 µM (inactive)

Question: What about the GI50 (MDA-MB-231) of the same molecule?
Answer: 13 µM (inactive)

Question: What about the GI50 (SW-620) of the same molecule?
Answer: 39.9 µM (inactive)

Question: And the GI50 (TK-10)?
Answer: 28.5 µM (inactive)

Question: What about the GI50 (HOP-62) of the same molecule?
Answer: 38.5 µM (inactive)

Question: And the GI50 (MDA-MB-435)?
Answer: 38.1 µM (inactive)

Question: What about the GI50 (IGROV-1) of the same molecule?
Answer: 16.3 µM (inactive)

Question: And the GI50 (HL-60)?
Answer: 28.9 µM (inactive)

Question: What about the GI50 (HCT-116) of the same molecule?
Answer: 22.7 µM (inactive)

Question: What about the GI50 (RXF 393) of the same molecule?
Answer: 33.4 µM (inactive)

Question: What about the GI50 (SN12C) of the same molecule?
Answer: 23.7 µM (inactive)

Question: What about the GI50 (SK-OV-3) of the same molecule?
Answer: 36.1 µM (inactive)

Question: And the GI50 (MCF7)?
Answer: 46.3 µM (inactive)

Question: What about the GI50 (NCI-H460) of the same molecule?
Answer: 20.1 µM (inactive)

Question: What about the GI50 (A549) of the same molecule?
Answer: 36.5 µM (inactive)

Question: And the GI50 (UACC-62)?
Answer: 27.8 µM (inactive)

Question: And the GI50 (OVCAR-8)?
Answer: 38.8 µM (inactive)

Question: What about the GI50 (SK-MEL-2) of the same molecule?
Answer: 33 µM (inactive)

Question: What about the GI50 (COLO 205) of the same molecule?
Answer: 24 µM (inactive)

Question: And the GI50 (KM12)?
Answer: 19.8 µM (inactive)

Question: And the GI50 (SK-MEL-5)?
Answer: 20.1 µM (inactive)

Question: What about the GI50 (SNB-75) of the same molecule?
Answer: 29.7 µM (inactive)

Question: What about the GI50 (OVCAR-5) of the same molecule?
Answer: 31.4 µM (inactive)

Question: And the GI50 (RPMI-8226)?
Answer: 33.3 µM (inactive)

Question: And the GI50 (OVCAR-3)?
Answer: 21.9 µM (inactive)

Question: And the GI50 (SF-295)?
Answer: 35.2 µM (inactive)

Question: And the GI50 (BT-549)?
Answer: 23 µM (inactive)

Question: And the GI50 (HT-29)?
Answer: 30.3 µM (inactive)

Question: What about the GI50 (UO-31) of the same molecule?
Answer: 24.5 µM (inactive)

Question: And the GI50 (SR)?
Answer: 40.1 µM (inactive)

Question: And the GI50 (M14)?
Answer: 32.1 µM (inactive)

Question: And the GI50 (NCI/ADR-RES)?
Answer: 37.8 µM (inactive)

Question: And the GI50 (T47D)?
Answer: 31.5 µM (inactive)
